Laboratory results as given in patent publication US11559497B2 (Guangzhou Dazhou Biomedicine Ltd., priority 2020, dated 2023).

Columns and labels:
patients = conditions: cited from earlier work
[1] = cited from earlier work
[2] = Phase 1 clinical study: plasma pharmacokinetics after ketamine transdermal patch; conditions: for AUC / AUC(0-inf) / Cmax / half-life / Tmax: human, plasma, other: transdermal patch; for AUC(0-inf): AUCinf
Protocol: Enrollment was planned to achieve participation of up to 14 adult subjects with MDD in the 3 stages of the protocol. Subjects were to be screened within 4 weeks of enrollment. Eligible subjects who provided written consent were to be enrolled into Stage 1 of the study. In Stage 1 of the study, subjects were to receive the low-dose transdermal patch. The amount of residual drug was to be measured and PK analysis conducted for each subject to inform the subsequent dosing. In Stage 2, after a 2 to 4 week washout period, a placebo patch was to be administered. A “deception” protocol was used in order to ensure the subjects remained blinded to the treatment. Placebo administration was followed by a 1 week washout period, after which subjects were to receive the high-dose transdermal patch in Stage 3. The overall study duration from screening until the end of Stage 3 was approximately 60 days, including both inpatient and outpatient portions of the study. The general study design is illustrated in FIG. 3.
The patch was predicted to deliver systemically approximately 20 mg.
For Stage 1, blood samples were collected pre-patch application, and at 2, 6, 12, 24, 28, 32, 48, 96, and 168 hours post-patch application.
Blood samples were collected in tubes containing sodium heparin and stored on ice or room temperature until centrifuged under refrigeration or room temperature for at least 10 minutes at 3,000 revolutions per minute. After centrifugation, plasma was removed, divided into 2 aliquots of approximately 0.6 mL each, frozen, and stored at or below −20° C. Blood was processed to plasma and frozen within 1 hour of collection. Processed frozen plasma samples were transferred on dry ice to the analytical laboratory and were stored at or below −20° C. until bioanalysis was performed.
A non-compartmental analysis (NCA) was used to calculate PK parameters using Phoenix® WinNonlin® 6.4 or later (Certara, USA).

[3] = system: subjects diagnosed with major depressive disorder (MDD); assay: Phase 1 clinical study: safety; assay type: in vivo, human
Excerpt: Safety data included adverse events (AEs), concomitant medications, PE, vital signs (VS), ECGs, clinical laboratory results, other safety measures based on questionnaires (Clinician-Administered Dissociative States Scale [CADSS], Observer's Assessment of Alertness/Sedation Scale [OAA/S], Brief Psychiatric Rating Scale [BPRS]), and the emergence of suicidality based on the suicidal ideation and suicidal behavior ratings of the Columbia-Suicide Severity Rating Scale (C-SSRS). Safety summaries and analyses were performed on the Safety Population and were presented by treatment. Observed data was summarized using counts and percentages for discrete variables and means, SD, median, inter-quartile range (25th-75th percentile), minimum, and maximum for continuous measures.

[4] = Stage 1: Ketamine Low-Dose (N = 18)
[5] = Stage 3: Ketamine High-Dose (N = 12)

CNC1(c2ccccc2Cl)CCCCC1=O (racemic) [Ketamine, ketamine]
time after which side effects typically resolved (patients; 0.5 mg/kg 40 minutes IV infusion): about 2 hours | duration of antidepressant effect after single dose (patients; IV infusion or intranasal spray): about 3 days | reduction of opioid consumption (patients; low-dose IV, perioperative pain, meta-analysis): 40% | absolute oral bioavailability ([1]; humans): 10-20% | systemic (primarily hepatic) clearance ([1]; in vivo): about 19 ml/min·kg | plasma concentration ([2]; 96 hours post dose): minimal values | plasma concentration ([2]; 168 hours post dose): below quantification limit | Extrap ([2]; Stage 1, Mean): 6% | Extrap ([2]; Stage 1, Median): 6% | Extrap ([2]; Stage 3, Mean): 4% | Extrap ([2]; Stage 3, Median): 3% | AUC ([2]; 20 mg, AUCall, Stage 1 (60 cm^2 patch, 24 h, low-dose), Mean): 284 ng·h/mL | AUC ([2]; 20 mg, AUCall, Stage 1 (60 cm^2 patch, 24 h, low-dose), Median): 280 ng·h/mL | AUC(0-inf) ([2]; 20 mg, Stage 1, Mean): 299 ng·h/mL | AUC(0-inf) ([2]; 20 mg, Stage 1, Median): 274 ng·h/mL | Cmax ([2]; 20 mg, Stage 1, Mean): ~10.3 ng/mL | Cmax ([2]; 20 mg, Stage 1, Median): 9.92 ng/mL | half-life ([2]; 20 mg, T1/2, Stage 1, Mean): 13.2 h | half-life ([2]; 20 mg, T1/2, Stage 1, Median): 13.7 h | Tmax ([2]; 20 mg, Stage 1, Mean): 27.1 h | Tmax ([2]; 20 mg, Stage 1, Median): 28 h | AUC ([2]; 20 mg, average AUC of ketamine per cm^2 patch over 24 hours, Stage 1): 3.62 ng·h/mL | AUC ([2]; 40 mg, AUCall, Stage 3 (20 and 60 cm^2 patches, high-dose), Mean): 393 ng·h/mL | AUC ([2]; 40 mg, AUCall, Stage 3 (20 and 60 cm^2 patches, high-dose), Median): 339 ng·h/mL | AUC(0-inf) ([2]; 40 mg, Stage 3, Mean): 423 ng·h/mL | AUC(0-inf) ([2]; 40 mg, Stage 3, Median): 362 ng·h/mL | Cmax ([2]; 40 mg, Stage 3, Mean): ~14.4 ng/mL | Cmax ([2]; 40 mg, Stage 3, Median): 9.67 ng/mL | half-life ([2]; 40 mg, T1/2, Stage 3, Mean): 13.8 h | half-life ([2]; 40 mg, T1/2, Stage 3, Median): 14.9 h | Tmax ([2]; 40 mg, Stage 3, Mean): 27 h | Tmax ([2]; 40 mg, Stage 3, Median): 28 h | AUC ([2]; 40 mg, average AUC of ketamine per cm^2 patch over 24 hours, Stage 3): 4.17 ng·h/mL | overall safety and tolerability ([3]; 20 mg and 40 mg doses): generally safe and well tolerated | At least 1 TEAE, # of Events [3, 4]: 3 | At least 1 TEAE, n (%) [3, 4]: 3 (16.7) n (%) | Cardiac disorders, # of Events [3, 4]: 0 | Cardiac disorders, n (%) [3, 4]: 0 n (%) | Contusion, # of Events [3, 4]: 1 | Contusion, n (%) [3, 4]: 1(5.6) n (%) | Depression, # of Events [3, 4]: 0 | Depression, n (%) [3, 4]: 0 n (%) | Dermatitis, # of Events [3, 4]: 0 | Dermatitis, n (%) [3, 4]: 0 n (%) | Diarrhoea, # of Events [3, 4]: 1 | Diarrhoea, n (%) [3, 4]: 1(5.6) n (%) | Erythema, # of Events [3, 4]: 0 | Erythema, n (%) [3, 4]: 0 n (%) | Gastrointestinal disorders, # of Events [3, 4]: 1 | Gastrointestinal disorders, n (%) [3, 4]: 1 (5.6) n (%) | Headache, # of Events [3, 4]: 0 | Headache, n (%) [3, 4]: 0 n (%) | Infections and infestations, # of Events [3, 4]: 0 | Infections and infestations, n (%) [3, 4]: 0 n (%) | Injury, poisoning, and procedural complications, # of Events [3, 4]: 1 | Injury, poisoning, and procedural complications, n (%) [3, 4]: 1 (5.6) n (%) | Nervous system disorders, # of Events [3, 4]: 1 | Nervous system disorders, n (%) [3, 4]: 1 (5.6) n (%) | Psychiatric disorders, # of Events [3, 4]: 0 | Psychiatric disorders, n (%) [3, 4]: 0 n (%) | Skin and subcutaneous tissue disorders, # of Events [3, 4]: 0 | Skin and subcutaneous tissue disorders, n (%) [3, 4]: 0 n (%) | Somnolence, # of Events [3, 4]: 1 | Somnolence, n (%) [3, 4]: 1 (5.6) n (%) | Swelling face, # of Events [3, 4]: 0 | Swelling face, n (%) [3, 4]: 0 n (%) | Tachycardia, # of Events [3, 4]: 0 | Tachycardia, n (%) [3, 4]: 0 n (%) | Urinary tract infection, # of Events [3, 4]: 0 | Urinary tract infection, n (%) [3, 4]: 0 n (%) | At least 1 TEAE, # of Events [3, 5]: 5 | At least 1 TEAE, n (%) [3, 5]: 4 (33.3) n (%) | Cardiac disorders, # of Events [3, 5]: 0 | Cardiac disorders, n (%) [3, 5]: 0 n (%) | Contusion, # of Events [3, 5]: 1 | Contusion, n (%) [3, 5]: 1 (8.3) n (%) | Depression, # of Events [3, 5]: 1 | Depression, n (%) [3, 5]: 1 (8.3) n (%) | Dermatitis, # of Events [3, 5]: 0 | Dermatitis, n (%) [3, 5]: 0 n (%) | Diarrhoea, # of Events [3, 5]: 0 | Diarrhoea, n (%) [3, 5]: 0 n (%) | Erythema, # of Events [3, 5]: 1 | Erythema, n (%) [3, 5]: 1 (8.3) n (%) | Gastrointestinal disorders, # of Events [3, 5]: 0 | Gastrointestinal disorders, n (%) [3, 5]: 0 n (%) | Headache, # of Events [3, 5]: 1 | Headache, n (%) [3, 5]: 1 (8.3) n (%) | Infections and infestations, # of Events [3, 5]: 0 | Infections and infestations, n (%) [3, 5]: 0 n (%) | Injury, poisoning, and procedural complications, # of Events [3, 5]: 1 | Injury, poisoning, and procedural complications, n (%) [3, 5]: 1 (8.3) n (%) | Nervous system disorders, # of Events [3, 5]: 1 | Nervous system disorders, n (%) [3, 5]: 1 (8.3) n (%) | Psychiatric disorders, # of Events [3, 5]: 1 | Psychiatric disorders, n (%) [3, 5]: 1 (8.3) n (%) | Skin and subcutaneous tissue disorders, # of Events [3, 5]: 2 | Skin and subcutaneous tissue disorders, n (%) [3, 5]: 1 (8.3) n (%) | Somnolence, # of Events [3, 5]: 0 | Somnolence, n (%) [3, 5]: 0 n (%) | Swelling face, # of Events [3, 5]: 1 | Swelling face, n (%) [3, 5]: 1 (8.3) n (%) | Tachycardia, # of Events [3, 5]: 0 | Tachycardia, n (%) [3, 5]: 0 n (%) | Urinary tract infection, # of Events [3, 5]: 0 | Urinary tract infection, n (%) [3, 5]: 0 n (%) | OAA/S change from baseline composite score between treatments ([3]; any timepoint): No significant differences | TEAEs considered possibly related to the study drug ([3]; headache and diarrhoea): 2 | PR interval or QTcB interval ([3]; human, in vivo): No trends in mean change from baseline | SBP, DBP, oxygen saturation, temperature ([3]; human, in vivo): No notable mean changes from baseline | adverse reactions at the patch application site ([3]; human, in vivo): no adverse reactions noted at the patch application site | deaths or SAEs ([3]; human, in vivo): no deaths or SAEs | laboratory parameters ([3]; human, in vivo): no clinically significant abnormal trends | severe TEAEs ([3]; human, in vivo): no severe TEAEs | respiratory rate and HR ([3]; ketamine high dose): a decrease in mean respiratory rate and an increase in HR compared to baseline | BPRS, BPRS-Positive subscale, CADSS total score post-patch application ([3]; low-dose or high-dose): no increase in the total score of the BPRS, the BPRS-Positive subscale, or the CADSS | TEAEs considered probably related to the study drug ([3]; somnolence): 1
